Laboratory results published in PubChem BioAssay AID330 (DTP/NCI, 2004).
Values joined by “and” are separate entries in the source; they are usually repeats but may differ in a detail not shown here. Identical values can stand only once. Toxic doses and inconclusive results are not listed. The calls were made as follows: active = survival T/C of 150% or more; inactive = T/C below 125% in these data.

Tested on: P388 leukemia ip, CD2F1 mice, survival T/C
Assay: NCI In Vivo Anticancer Drug Screen. Data for tumor model P388 Leukemia (intraperitoneal) in CD2F1 (CDF1) mice
Details: endpoint: median survival time, higher = longer survival
In short: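 Mice carrying the transplanted tumor received test compound or vehicle. Survival was recorded in each group, and the value is the treated-group measurement divided by that of the vehicle-treated control group.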

[1] = dose: 50.0 mg/kg/injection, schedule: Q01DX009 (ip), vehicle: saline with Tween-80
[2] = dose: 100.0 mg/kg/injection, schedule: Q01DX009 (ip), vehicle: saline with Tween-80
[3] = dose: 50.0 mg/kg/injection, schedule: Q01DX005 (ip), vehicle: saline with Tween-80
[4] = dose: 100.0 mg/kg/injection, schedule: Q01DX005 (ip), vehicle: saline with Tween-80
[5] = dose: 200.0 mg/kg/injection, schedule: Q01DX005 (ip), vehicle: saline with Tween-80
[6] = dose: 200.0 mg/kg/injection, schedule: Q01DX009 (ip), vehicle: saline with Tween-80
[7] = dose: 50.0 mg/kg/injection, schedule: Q01DX005 (ip), vehicle: Klucel (hydroxypropylcellulose) (HPC)
[8] = dose: 100.0 mg/kg/injection, schedule: Q01DX005 (ip), vehicle: Klucel (hydroxypropylcellulose) (HPC)
[9] = dose: 200.0 mg/kg/injection, schedule: Q01DX005 (ip), vehicle: Klucel (hydroxypropylcellulose) (HPC)
[10] = dose: 50.0 mg/kg/injection, schedule: Q04DX003 (ip), vehicle: saline with Tween-80
[11] = dose: 100.0 mg/kg/injection, schedule: Q04DX003 (ip), vehicle: saline with Tween-80
[12] = dose: 200.0 mg/kg/injection, schedule: Q04DX003 (ip), vehicle: saline with Tween-80
[13] = dose: 50.0 mg/kg/injection, schedule: Q01DX009 (ip), vehicle: saline
[14] = dose: 100.0 mg/kg/injection, schedule: Q01DX009 (ip), vehicle: saline
[15] = dose: 200.0 mg/kg/injection, schedule: Q01DX009 (ip), vehicle: saline

Measured: T/C

COC(=O)c1ccc(/C=C/C(=O)c2ccc(C(=O)OC)cc2)cc1
inactive: dose: 100.0 mg/kg/injection, schedule: Q01DX001 (ip), vehicle: saline with Tween-80 106 % of control | dose: 200.0 mg/kg/injection, schedule: Q01DX001 (ip), vehicle: saline with Tween-80 101 % of control | dose: 400.0 mg/kg/injection, schedule: Q01DX001 (ip), vehicle: saline with Tween-80 98 % of control

CN(C)/C=N\c1ncnc2c1ncn2C1OC(CO)C(O)C1O (stereo not drawn)
inactive: dose: 6.25 mg/kg/injection, schedule: Q01DX009 (ip), vehicle: saline with Tween-80 104 % of control | dose: 12.5 mg/kg/injection, schedule: Q01DX009 (ip), vehicle: saline with Tween-80 98 % of control | dose: 25.0 mg/kg/injection, schedule: Q01DX009 (ip), vehicle: saline with Tween-80 102 % of control | [1] 99 % of control | [2] 95 % of control

Nc1nc2scnc2c(=O)[nH]1
inactive: dose: 12.5 mg/kg/injection, schedule: Q01DX005 (ip), vehicle: saline with Tween-80 88 % of control | dose: 25.0 mg/kg/injection, schedule: Q01DX005 (ip), vehicle: saline with Tween-80 101 % of control | [3] 109 % of control and 97 % of control | [4] 102 % of control | [5] 112 % of control

CS(=O)(=O)Nc1ccc(Nc2c3ccccc3nc3cc([N+](=O)[O-])ccc23)cc1
active: dose: 0.75 mg/kg/injection, schedule: Q01DX009 (ip), vehicle: saline with Tween-80 169 % of control | dose: 1.5 mg/kg/injection, schedule: Q01DX009 (ip), vehicle: saline with Tween-80 169 % of control | dose: 3.0 mg/kg/injection, schedule: Q01DX009 (ip), vehicle: saline with Tween-80 177 % of control
inactive: dose: 0.09 mg/kg/injection, schedule: Q01DX009 (ip), vehicle: saline with Tween-80 121 % of control

CCCCOC(=O)NCCCl
inactive: [1] 96 % of control | [2] 97 % of control | [6] 102 % of control

CC(C)OC(=O)CC1NS(=O)(=O)c2ccccc21 (stereo not drawn)
inactive: dose: 50.0 mg/kg/injection, schedule: Q01DX005 (ip), vehicle: suspension in saline 103 % of control | dose: 100.0 mg/kg/injection, schedule: Q01DX005 (ip), vehicle: suspension in saline 103 % of control | dose: 200.0 mg/kg/injection, schedule: Q01DX005 (ip), vehicle: suspension in saline 100 % of control

O=S(=O)(O)c1ccc(Cl)c(N=N/C=N/Nc2cc(S(=O)(=O)O)ccc2Cl)c1
inactive: [7] 100 % of control | [8] 98 % of control | [9] 100 % of control

CCCCCCC[n+]1ccccc1C#N
inactive: dose: 12.5 mg/kg/injection, schedule: Q04DX003 (ip), vehicle: saline with Tween-80 103 % of control and 107 % of control | dose: 25.0 mg/kg/injection, schedule: Q04DX003 (ip), vehicle: saline with Tween-80 100 % of control and 103 % of control | [10] 103 % of control | [11] 100 % of control and 118 % of control | [12] 99 % of control

Nc1ccc(S(=O)(=O)c2ccc(NCC(=O)O)cc2)cc1
inactive: [1] 100 % of control | [10] 100 % of control | [2] 95 % of control | [11] 100 % of control | [6] 86 % of control | [12] 100 % of control

CC1Cc2c([nH]c(=O)n(-c3ccccc3)c2=S)O1 (stereo not drawn)
inactive: dose: 25.0 mg/kg/injection, schedule: Q01DX001 (ip), vehicle: Klucel (hydroxypropylcellulose) (HPC) 96 % of control | dose: 50.0 mg/kg/injection, schedule: Q01DX001 (ip), vehicle: Klucel (hydroxypropylcellulose) (HPC) 112 % of control | dose: 100.0 mg/kg/injection, schedule: Q01DX001 (ip), vehicle: Klucel (hydroxypropylcellulose) (HPC) 100 % of control

O=C(O)c1cc(Cl)n[nH]c1=O
inactive: [7] 95 % of control | [8] 92 % of control | [9] 86 % of control

CN(C)C(=O)c1cccc(COc2ccc(N3C(N)=NC(N)=NC3(C)C)cc2Cl)c1
inactive: dose: 4.0 mg/kg/injection, schedule: Q01DX001 (ip), vehicle: saline 96 % of control | dose: 8.0 mg/kg/injection, schedule: Q01DX001 (ip), vehicle: saline 99 % of control | dose: 8.0 mg/kg/injection, schedule: Q01DX009 (ip), vehicle: saline 107 % of control | dose: 16.0 mg/kg/injection, schedule: Q01DX001 (ip), vehicle: saline 95 % of control | dose: 16.0 mg/kg/injection, schedule: Q01DX009 (ip), vehicle: saline 100 % of control | dose: 16.0 mg/kg/injection, schedule: Q08DX002 (ip), vehicle: saline 100 % of control | dose: 32.0 mg/kg/injection, schedule: Q01DX001 (ip), vehicle: saline 93 % of control | dose: 32.0 mg/kg/injection, schedule: Q01DX009 (ip), vehicle: saline 111 % of control | dose: 32.0 mg/kg/injection, schedule: Q08DX002 (ip), vehicle: saline 110 % of control | dose: 64.0 mg/kg/injection, schedule: Q01DX001 (ip), vehicle: saline 96 % of control

CC(=O)C(C[n+]1ccccc1)c1ccccc1 (stereo not drawn)
inactive: dose: 15.0 mg/kg/injection, schedule: Q01DX005 (ip), vehicle: saline 98 % of control | dose: 30.0 mg/kg/injection, schedule: Q01DX005 (ip), vehicle: saline 98 % of control | dose: 60.0 mg/kg/injection, schedule: Q01DX005 (ip), vehicle: saline 102 % of control and 107 % of control

CC(=O)OC1(C)C(=O)OC/C2=C/CN(C)CCC(OC(=O)C(O)(C(C)Cl)CC1C)C2=O (stereo not drawn)
inactive: dose: 12.5 mg/kg/injection, schedule: Q01DX005 (ip), vehicle: Klucel (hydroxypropylcellulose) (HPC) 103 % of control | dose: 25.0 mg/kg/injection, schedule: Q01DX005 (ip), vehicle: Klucel (hydroxypropylcellulose) (HPC) 100 % of control | [7] 99 % of control and 103 % of control

CC1C(=O)NC(=O)CC1c1ccccc1 (stereo not drawn)
inactive: dose: 100.0 mg/kg/injection, schedule: Q04DX002 (ip), vehicle: saline with Tween-80 100 % of control | dose: 200.0 mg/kg/injection, schedule: Q04DX002 (ip), vehicle: saline with Tween-80 103 % of control | dose: 400.0 mg/kg/injection, schedule: Q04DX002 (ip), vehicle: saline with Tween-80 95 % of control

Nc1nc2n(n1)C(=O)C(=O)N2
inactive: [10] 100 % of control | [11] 106 % of control | [12] 103 % of control | dose: 400.0 mg/kg/injection, schedule: Q04DX003 (ip), vehicle: saline with Tween-80 103 % of control

CCN(CC)CCCC(C)Sc1ccnc2cc(Cl)ccc12 (stereo not drawn)
inactive: [3] 95 % of control | [4] 101 % of control | [5] 106 % of control

COc1ccc(C(OC)C2CCCCC2N2CCCCC2)cc1 (stereo not drawn)
inactive: dose: 0.5 mg/kg/injection, schedule: Q01DX009 (ip), vehicle: Klucel (hydroxypropylcellulose) (HPC) 107 % of control | dose: 1.0 mg/kg/injection, schedule: Q01DX009 (ip), vehicle: Klucel (hydroxypropylcellulose) (HPC) 114 % of control | dose: 2.0 mg/kg/injection, schedule: Q01DX009 (ip), vehicle: Klucel (hydroxypropylcellulose) (HPC) 107 % of control | dose: 4.0 mg/kg/injection, schedule: Q01DX009 (ip), vehicle: Klucel (hydroxypropylcellulose) (HPC) 109 % of control

N#C/C(=C\c1c(Cl)cccc1Cl)c1nc(-c2ccc(Cl)cc2)cs1
inactive: [13] 92 % of control | [14] 92 % of control | [15] 105 % of control

CCN1/C(=C/C2=C([O-])C(=C\c3ccc4ccccc4[n+]3CC)/C2=O)C=Cc2ccccc21
inactive: dose: 60.0 mg/kg/injection, schedule: Q01DX005 (ip), vehicle: Klucel (hydroxypropylcellulose) (HPC) 101 % of control | dose: 120.0 mg/kg/injection, schedule: Q01DX005 (ip), vehicle: Klucel (hydroxypropylcellulose) (HPC) 97 % of control | dose: 240.0 mg/kg/injection, schedule: Q01DX005 (ip), vehicle: Klucel (hydroxypropylcellulose) (HPC) 86 % of control

CC(C)(C)[Si](C)(C)CC#C[Si](C)(C)C
inactive: [3] 104 % of control | [4] 103 % of control

C/C(=N\NC(=S)Nc1nccs1)c1ccc2ccccc2n1
inactive: [3] 102 % of control | [4] 100 % of control | [5] 113 % of control

CCCC(O)C(C(=O)OCC)C(=O)OCC (stereo not drawn)
inactive: [13] 95 % of control | [14] 95 % of control | [15] 94 % of control

NC(=S)N/N=C/c1nc2ccccn2c1[N+](=O)[O-]
inactive: dose: 100.0 mg/kg/injection, schedule: Q01DX009 (ip), vehicle: Klucel (hydroxypropylcellulose) (HPC) 86 % of control
